Assay results as given in patent publication US5525623A, “Compositions and methods for the treatment of immunomediated inflammatory disorders” (Arris Pharmaceutical Corporation, priority 1994, dated 1996).

How the values were obtained:
Tryptase [1] = molecular target: T1, Tryptase (Homo sapiens, UniProt Q15661); test: In Vitro Tryptase Inhibition Assay (hydrolysis of tosyl-GlyProLys-p-nitroanilide, Tris-HCl pH 8.2); format: biochemical
Protocol: Table II lists the inhibition constants (Ki ', micromolar (μM)) which were determined for several of the compounds of the present invention, wherein R^1 is hydrogen; R^2 is hydrogen; R^3 is --(CH2)3 --NH--(C=NH)--NH2; R^4 and R^5, together with the nitrogen and carbon to which they are attached form a five-membered heterocycle; and R^6 is hydrogen. […] Unlike Ki, Ki ' may not be a true dissociation constant of the enzyme-inhibitor complex; Ki ' is equal to Ki for a noncompetitive inhibitor and is directly proportional to Ki for competitive and uncompetitive inhibitors.
Generally, the assay conditions are light sensitive and variations in ambient light intensity may affect assay reproducibility. As a result of this potential source of error, some assays were run under dark conditions. The Ki 's reported in Tables II and III without parentheses were determined under conditions of ambient light. Ki 's reported with parentheses were determined under "dark" conditions as defined above.

Tryptase [2] = molecular target: T1, Tryptase; test: biochemical; conditions: for Ki: Table IV
Protocol: Compounds (approx. 1 mg) to be assayed against tryptase were reconstituted in dimethylsulfoxide (DMSO) and diluted 1:10 into buffer containing 50 millimolar (mM) Tris-HCl at pH 8.2, and containing 100 mM NaCl, 0.05% Tween-20. Seven additional 3-fold dilutions were made from the initial dilution into the same buffer supplemented with 10% DMSO. Aliquots (50 μl) from each of the eight dilutions in the series were transferred to individual wells in a 96-well U-bottom microtiter plate. Tryptase (25 μl; 0.5 nM final concentration) was added to each well and the samples were mixed and incubated for 1 hr at room temperature under either ambient light (i.e., the light available in the room during the experiment) or under controlled "light" or "dark" conditions. "Light conditions" refers herein to a light intensity of 400-450 footcandles from a fluorescent bulb. "Dark" refers herein to sample containers wrapped in aluminum foil. The enzyme reaction was then initiated with the addition of the synthetic tripeptide substrate, tosyl-GlyProLys-p-nitroanilide (25 μl; 0.5 mM final concentration). The microtiter plates were immediately transferred to a UV/MAX Kinetic Microplate Reader (Molecular Devices) and hydrolysis of the chromogenic substrate was followed spectrophotometrically at […] for 5 minutes. […] Initial velocity measurements, calculated from progress curves by a kinetic analysis program called "BatchKi" (available commercially from Biokin Ltd., of Madison Wis.), were used to determine apparent inhibition constants for each inhibitor. This program is designed to perform regressions and curve-fitting of non-linear data.
Compound 3 was assayed against tryptase at four different pH's in the following buffer system: 120 mM NaCl, 2.7 mM KCl, 0.13 mM NaH2 PO4, 0.896 mM Na2 HPO4. The final buffer system used included 0.05% of Tween-20.
Thus, the assay procedure described above was performed wherein the dilution of Compound 3 and the addition of tryptase was done under ambient light at room temperature (22°-26° C.). The assay plate was wrapped in aluminum foil for a 1-hr incubation before substrate addition, which was also done under ambient light.

allergic sheep [3] = test: Allergic sheep model of asthma: specific lung resistance (SRL) after antigen challenge; format: in vivo; conditions: 9 mg aerosol 0.5 h before, 4 h and 24 h after antigen challenge
Protocol: (§1) The initial asthmatic response can be evaluated in guinea pigs, and dogs, and particularly, with a basenji-greyhound cross strain which develops nonspecific airway hyperresponsiveness to numerous nonallergenic substances, such as methacholine and citric acid. […] In dual responding animals, the initial asthmatic response (IAR) is followed by a late asthmatic response (LAR) at 6-8 hours post-exposure.
(§2) The allergic sheep model was used to evaluate the potential antiasthmatic effects of the compounds of the present invention.
(§3) The allergic sheep model of asthma was employed in these studies. These methods have been published previously (see Abraham et al. (1983) Am. Rev. Respir. Dis. 128:839-844; Allegra et al. (1983) J. Appl. Physiol. 55:726-730; Russi et al. (1985) J. Appl. Physiol. 59:1416-1422; Soler et al. ((1989) J. Appl. Physiol. 67:406-413. Each sheep served as its own control. Body weights for these animals ranged from 20-50 kilograms.
(§4) In these studies, 9 mg of Compound 3 of Tables I and II was dissolved in 3 mL buffered saline and the total solution delivered as an aerosol 0.5 hours before, 4 hours after, and 24 hours after antigen challenge (total dose=27; n=6). In the control (vehicle only) trial, antigen challenge caused peak early and late increases above baseline in specific lung resistance (SRL) of 374±104% and 212±21% (mean±SE). In contrast, when the sheep were treated with Compound 3 of Tables I and II, the early and late increases in SRL were 280±39% and 72±9% (p <0.05 vs. control, Wilcoxon signed rank test). The peak early response was taken as the average of the maximum values occurring immediately post-challenge. Peak late responses were calculated by averaging the maximum response values obtained for each animal within the 6-8 hour time period. This approach is conservative and eliminates the possible reduction in the late response due simply to averaging.

allergic sheep [4] = test: Allergic sheep model: airway hyperresponsiveness to carbachol (PC400) 24 hours after antigen challenge; format: in vivo
Protocol: as §1, §2, §3, §4
Twenty-four hours after antigen challenge in both the control and drug trial, the sheep developed airway hyperresponsiveness. […] Baseline PC400 was 22.0±3.7 breath units in the control trial, falling to 9.1±1.3 breath units after antigen challenge (p<0.05 vs. baseline).

[5] = Table III, asterisk: "light" conditions, 400-450 footcandles
[6] = Table III, parentheses: "dark" conditions (aluminum foil)
[7] = Table II, ambient light (no parentheses)
[8] = Table II, asterisk: "light" conditions, 400-450 footcandles
[9] = Table II, parentheses: "dark" conditions (aluminum foil)

T1 sequence (Q15661 31-275): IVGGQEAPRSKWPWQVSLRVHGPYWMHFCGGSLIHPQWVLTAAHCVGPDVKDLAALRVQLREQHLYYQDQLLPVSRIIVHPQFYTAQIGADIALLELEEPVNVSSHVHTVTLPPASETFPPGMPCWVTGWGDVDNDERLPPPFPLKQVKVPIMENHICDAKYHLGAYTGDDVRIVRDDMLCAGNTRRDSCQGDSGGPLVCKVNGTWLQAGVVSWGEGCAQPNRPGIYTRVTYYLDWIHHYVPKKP

| Ki (Tryptase [1]; [7]) | Ki (Tryptase [1]; [8]) | Ki (Tryptase [1]; [9]) | Structure (SMILES) | further results |
| --- | --- | --- | --- | --- |
|  |  |  | CN(CC(N)=O)C(=O)[C@H](CCCNC(=N)N)NC(=O)c1c(O)ccc2ccccc12 [Compound 1] | Ki (Tryptase [1]; [5]): 3 µM; Ki (Tryptase [1]; [6]): 637 µM |
| > 500 µM |  |  | Cc1ccc(C(=O)N[C@@H](CCCNC(=N)N)C(=O)N2CCC[C@H]2C(N)=O)c(O)c1 [Compound 2] |  |
|  |  |  | COC(=O)[C@@H]1C[C@@H](O)CN1C(=O)[C@H](CCCNC(=N)N)NC(=O)c1c(O)ccc2ccccc12 [Compound 4] | Ki (Tryptase [1]; Table III, ambient light (no parentheses)): 749 µM |
| 15 µM |  |  | CN(C)C(=O)[C@@H]1CCCN1C(=O)[C@H](CCCNC(=N)N)NC(=O)c1c(O)ccc2ccccc12 [Compound 5] |  |
| 82 µM |  |  | N=C(N)NCCC[C@H](NC(=O)c1ccc2ccccc2c1O)C(=O)N1CCC[C@H]1C(=O)N1CCCC(C(N)=O)C1 (stereo partly shown) [Compound 6] |  |
| 664 µM |  |  | N=C(N)NCCC[C@H](NC(=O)c1ccc2ccccc2c1O)C(=O)N1CCC[C@H]1C(=O)N1CCC(C(N)=O)CC1 [Compound 7] |  |
| 208 µM |  |  | COC(=O)[C@@H]1CCCN1C(=O)[C@H](CCCNC(=N)N)NC(=O)c1c(O)ccc2ccccc12 [Compound 8] |  |
|  | 23 µM | 56 µM | N=C(N)NCCC[C@H](NC(=O)c1nc2ccccc2nc1O)C(=O)N1CCC[C@H]1C(N)=O [Compound 9] |  |
|  |  |  | N=C(N)Nc1ccc(C[C@H](NC(=O)c2ccc3ccccc3c2O)C(=O)N2CCC[C@H]2C(N)=O)cc1 [Compound 10] | Ki (Tryptase [1]; [5]): 2.5 µM; Ki (Tryptase [1]; [6]): 18 µM |
|  |  |  | N=C(N)NCCC[C@H](NC(=O)c1ccc2ccccc2c1O)C(=O)N1C[C@H](O)C[C@H]1C(N)=O [Compound 11] | Ki (Tryptase [1]; [5]): 0.3 µM; Ki (Tryptase [1]; [6]): 40 µM |
|  |  |  | N=C(N)NCCC[C@H](NC(=O)c1ccc2ccccc2c1O)C(=O)N1CCC[C@@H]1C(N)=O [Compound 12] | Ki (Tryptase [1]; [5]): 2.5 µM; Ki (Tryptase [1]; [6]): 818 µM |
|  | 0.6 µM | 110 µM | N=C(N)NCCC[C@H](NC(=O)c1ccc2ccccc2c1O)C(=O)N1CCC[C@H]1C(=O)N[C@@H](Cc1ccccc1)C(N)=O [Compound 13] |  |
|  | 752 µM | 707 µM | N=C(N)NCCC[C@H](NC(=O)c1cc2ccccc2cc1O)C(=O)N1CCC[C@H]1C(N)=O [Compound 14] |  |
| 0.84 µM |  |  | N=C(N)NCCC[C@H](NC(=O)c1c(O)ccc2ccccc12)C(=O)N1CCC[C@H]1C(N)=O [Compound 15] |  |
|  | 8 µM | 63 µM | N=C(N)NCCC[C@H](NC(=O)c1ncccc1O)C(=O)N1CCC[C@H]1C(N)=O [Compound 16] |  |
| 900 µM |  |  | Cc1ccc2c(O)c(C(=O)N[C@@H](CCCNC(=N)N)C(=O)N3CCC[C@H]3C(N)=O)cnc2n1 [Compound 17] |  |
| 452 µM |  |  | N=C(N)NCCC[C@H](NC(=O)c1cccnc1O)C(=O)N1CCC[C@H]1C(N)=O [Compound 18] |  |
|  | 8 µM | 2450 µM | N=C(N)NCCC[C@H](NC(=O)c1ccccc1O)C(=O)N1CCC[C@H]1C(N)=O [Compound 19] |  |
| 20 µM |  |  | N=C(N)NCCC[C@H](NC(=O)c1cc(O)ccc1O)C(=O)N1CCC[C@H]1C(N)=O [Compound 20] |  |
|  | 18 µM | 149 µM | N=C(N)NCCC[C@H](NC(=O)c1cc(-c2ccccc2)ccc1O)C(=O)N1CCC[C@H]1C(N)=O [Compound 21] |  |

| Structure (SMILES) | Ki (Tryptase [1]; [7]) | Ki (Tryptase [1]; [8]) | Ki (Tryptase [1]; [9]) | further results |
| --- | --- | --- | --- | --- |
| N=C(N)NCCC[C@H](NC(=O)c1ccc2ccccc2c1O)C(=O)N1CCC[C@H]1C(N)=O [Compound 3, 1-hydroxy-2-naphthoyl-L-arginyl-L-proline amide] |  | 0.3 µM | 82 µM | sensitivity to light in the buffer system (Tryptase [2]; 120 mM NaCl, 2.7 mM KCl, 0.13 mM NaH2PO4, 0.896 mM Na2HPO4, 0.05% Tween-20, pH 7.5): less sensitive to light; Ki (Tryptase [2]; pH 6.5): 14 µM; Ki (Tryptase [2]; pH 7.0): 8 µM; Ki (Tryptase [2]; pH 7.5): 5.4 µM; Ki (Tryptase [2]; pH 8.0): 6.1 µM; effect on early response (allergic sheep [3]): exhibited a tendency to reduce the early response; effect on late response (allergic sheep [3]; FIG. 1): attenuated the late response; late increase in SRL (peak late response above baseline, 6-8 hours) (allergic sheep [3]; n=6, mean±SE, control 212±21%, p <0.05 vs. control): 72±9%; early increase in SRL (peak early response above baseline) (allergic sheep [3]; n=6, mean±SE, control 374±104%): 280±39%; effect on 24 hour hyperresponsiveness (allergic sheep [4]; 24 h after antigen challenge, FIG. 2): blocked the 24 hour hyperresponsiveness; PC400, after antigen challenge (allergic sheep [4]; drug trial, 24 h after antigen challenge, control 9.1±1.3): 17.6±3.5 breath units; PC400 change relative to baseline (allergic sheep [4]; drug trial, after antigen challenge vs. baseline): unchanged relative to baseline; PC400, baseline (allergic sheep [4]; drug trial, baseline (before antigen challenge), control baseline 22.0±3.7): 16.0±3.8 breath units; airway function in allergen challenged sheep (allergic sheep [4]; treatment with Compound 3, allergen challenged sheep): statistically significant improvement in airway function |
